Experimental data reported in patent US20090312361A1, “NOVEL PHARMACEUTICAL COMPOSITIONS FOR TREATING ACQUIRED CHRONIC PAIN AND ASSOCIATED DYSPHORIA” (priority 2004, published 2009).

Tests used:
[1] = test system: neurogenic pain in the distal lower limbs, feet and digits; lower back pain; assay: Treatment of patient with severe back pain (Patient 1, case report); settings: Patient 1, oral tramadol at doses up to 500 mg per day as needed
child = settings: 4 mg/kg of tramadol to a child; cited from earlier work
μ-opiate receptors = μ-opiate receptors (Homo sapiens, UniProt P35372); settings: cited from earlier work
μ-opiate receptors, sequence (P35372 whole entry): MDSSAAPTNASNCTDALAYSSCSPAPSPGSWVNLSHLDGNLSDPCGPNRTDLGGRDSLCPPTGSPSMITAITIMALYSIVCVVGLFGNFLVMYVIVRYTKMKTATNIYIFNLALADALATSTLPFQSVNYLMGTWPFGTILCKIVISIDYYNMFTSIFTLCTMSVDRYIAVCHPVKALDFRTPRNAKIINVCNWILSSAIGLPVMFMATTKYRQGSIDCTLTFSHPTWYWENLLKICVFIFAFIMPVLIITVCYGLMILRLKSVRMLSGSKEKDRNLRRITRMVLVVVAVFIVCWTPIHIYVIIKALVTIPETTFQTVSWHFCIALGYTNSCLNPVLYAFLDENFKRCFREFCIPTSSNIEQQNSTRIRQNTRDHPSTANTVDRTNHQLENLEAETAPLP

[2] = cited from earlier work; for accumulation: during multiple dose treatment with tramadol
pain = settings: cited from earlier work
[3] = test system: neuropathic pain (secondary peripheral distal neuropathy of both feet and legs); assay: Treatment of patient suffering from diabetic neuropathy (Patient 2, case report); assay type: in vivo, human
Protocol: Patient 2 was a person with a history of untreated diabetes. Secondary peripheral distal neuropathy of both feet and legs was among the patients' clinical complaints. […] The patient gradually self escalated the dosage of aspirin to 10 to 12×325 mg tablets per day. The patient then presented after self treatment for several weeks at the emergency room complaining of gastric pain and blood in the vomitus. […] The patient was stabilized through dietary intervention with antacids and released after several days.

[4] = cited from earlier work

COc1cccc(C2(O)CCCCC2CN(C)C)c1 (racemic) [tramadol, (+/−)-trans (RR,SS)-2-[(di-methylamino)methyl]-1-(3-methoxyphenyl)cyclohexanol]
reported pain range [1]: tolerable | side effects [1]: no significant side effects | adverse effect after inadvertent administration (child): seizure activity | affinity for μ-opiate receptors, fold less than codeine (μ-opiate receptors; relative to codeine): 10 fold | affinity for μ-opiate receptors, fold less than d-propoxyphene (μ-opiate receptors; relative to d-propoxyphene): 100 fold | affinity for μ-opiate receptors compared with dextromethorphan (μ-opiate receptors; relative to dextromethorphan): equivalent to dextromethorphan | affinity for μ-opiate receptors, fold less than morphine (μ-opiate receptors; relative to morphine): 6.000 fold | time to peak serum concentrations ([2]; after oral administration): ≤ 2 h | accumulation [2]: approximately 2 fold | duration of the analgesic effect (pain; after a single oral dose of tramadol 100 mg): about 6 hours

CN(C)C[C@H]1CCCC[C@]1(O)c1cccc(O)c1 [M1 derivative, O-desmethyltramadol]
accumulation [2]: approximately 2 fold | analgesic potency relative to the parent drug (pain; relative to tramadol): at least twice the analgesic potency of the parent drug

CC(=O)Oc1ccccc1C(=O)O [aspirin, acetylsalicylic acid]
diagnosis after self treatment ([3]; Patient 2, 10 to 12×325 mg tablets per day for several weeks): gastro-esophageal erosion and hemorrhage | control of neuropathic pain ([3]; Patient 2, treatment with aspirin and other NSAIDs): only marginally effective

Cn1c(=O)c2c(ncn2C)n(C)c1=O [caffeine, 3,7-dihydro-1,3,7-trimethyl-1H-purine-2,6-dione]
time to maximal plasma concentrations ([4]; after oral, rectal or parenteral administration): ≤ 1 h | half-life in plasma ([4]; in vivo): 3 to 7 h
